In ChEMBL document CHEMBL4513101, “Naegleria gruberi Pathogen Box compounds screening” (2021):

Test system: Naegleria gruberi
Assay: microbe, parasite or virus in culture
Assay type: functional
Conditions: NEG-M, CONC 10 uM; in the data active = inhibition of 80% or more and inactive = less
Description: Growth inhibiting activity of Naegleria gruberi in vitro

| SMILES | inhibition at 10 µM |
| --- | --- |
| Nc1ncc(-c2ccc(C(F)(F)F)nc2)cc1-c1ccc(C(F)(F)F)nc1 | 16.5% (not active) |
| O=[N+]([O-])c1cn2c(n1)OC[C@@H](OCc1ccc(OC(F)(F)F)cc1)C2 [PRETOMANID] | 16.1% (not active) |
| O=C(Nc1cccc(Cl)c1)c1cnc(N2CCN(c3ccncc3)CC2)c(Cl)c1 | 39.6% (not active) |
| N=C(N)Nc1ccc(-c2ccc(-c3ccc(N=C(N)N)c(Cl)c3)o2)cc1Cl | 22.3% (not active) |
| CCN(CC)CCCCCCNc1cc(OC)cc2c(C)ccnc12 [SITAMAQUINE] | 40.1% (not active) |
| NC(=O)c1cc(-c2ccsc2)ccc1OCCOc1ccccc1 | 43.7% (not active) |
| CN1CCN(S(=O)(=O)c2ccc(-c3ccc4c(Nc5ncc(Cl)cn5)ccnc4c3)cc2)CC1 | 43.6% (not active) |
| CC(=O)NCC1CN(c2ccc(-c3ccc(CNCc4cn[nH]n4)cc3)c(F)c2)C(=O)O1 (stereo not drawn) | 26.2% (not active) |
| c1csc(-c2cnc3sc(NCC4CCOCC4)nn23)c1 | 39.9% (not active) |
| COc1ccc(-c2cnc3cnc(-c4cccc(OC(C)C)c4)cn23)cc1 | 9.4% (not active) |
| FC(F)(F)c1nnc2ccc(Cl)nn12 | 16.8% (not active) |
| O=C(C1CCN(c2nnnn2-c2ccccc2)CC1)N1CCc2ccccc2C1 | 25.8% (not active) |
| CNC(=O)C1Cc2c([nH]c3cc(Cl)ccc23)C2(CCN(CCc3ccccc3)CC2)N1 (stereo not drawn) | 11.5% (not active) |
| CCOc1ccc(OCC(=O)Nc2cc(C)cc(C)c2)cc1 | 0% (not active) |
| COc1cc(C2=NCCN2)cc2cc(-c3ccc(C4=NCCN4)cc3)oc12 | 11.2% (not active) |
| CNc1nnc(Sc2cnn(-c3ccccc3)c(=O)c2Cl)s1 | 50% (not active) |
| COc1ccc(OC)c(NCc2ccc3nc(N)nc(N)c3c2Cl)c1 | 33.6% (not active) |
| CCC(Sc1nc2ccccc2o1)C(=O)Nc1nnc(C)s1 (stereo not drawn) | 8.4% (not active) |
| O=C1O[C@@H](COc2ccon2)CN1c1cc(F)c(C2=CCN(Cc3ccccc3)CC2)c(F)c1 | 4.4% (not active) |
| COc1cccc(-n2nnnc2S(C)(=O)=O)c1 | 78.8% (not active) |
| COc1cc(NC(C)CCCN)c2ncccc2c1 (stereo not drawn) [PRIMAQUINE] | 10.7% (not active) |

| SMILES | inhibition at 10 µM |
| --- | --- |
| CS(=O)(=O)c1cccc(-c2cnc3[nH]cc(-c4ccc(CCC(=O)O)cc4)c3c2)c1 | 28.7% (not active) |
| CCCS(=O)(=O)N1CCC(CO)(Cc2ccccc2C(F)(F)F)CC1 | 19% (not active) |
| O=C(NC1CCCCC1)N1CCN(Cc2ccc3c(c2)OCO3)CC1 | 31.3% (not active) |
| CN1CCCN(C(c2ccccc2)c2ccc(Cl)cc2)CC1 (stereo not drawn) [HOMOCHLORCYCLIZINE] | 11.6% (not active) |
| CN1CCC(NCc2cccc(-c3ccc(S(=O)(=O)NCc4ccccc4)cc3)c2)CC1 | 14.4% (not active) |
| CCCCc1ccc(C(=O)Nc2nccc3ccccc23)nc1 | 43.2% (not active) |
| Cc1ccc(NC(=O)CC2COc3ccccc3O2)cc1Cl (stereo not drawn) | 79.9% (not active) |
| CC1CS(=O)(=O)CCN1/N=C/c1ccc([N+](=O)[O-])o1 (stereo not drawn) [NIFURTIMOX] | 11.1% (not active) |
| O=S(=O)(c1ccc(Cl)cc1)N1CCN(C(=S)NCc2ccco2)CC1 | 38% (not active) |
| CC(C)(C)n1nc(Cc2cccc3ccccc23)c2c(N)ncnc21 | 13.8% (not active) |
| Cc1cc(NCCc2ccccc2)nc(NC(=N)Nc2ccc(Cl)cc2)n1 | 19.6% (not active) |
| Clc1cccc(CO[C@H]2CCc3ccccc3[C@@H]2n2ccnn2)c1 | 12.6% (not active) |
| c1ccc(C[C@@H]2CN(c3nccc(Oc4ccc(-n5ccnc5)cc4)n3)CCN2)cc1 | 26.4% (not active) |
| COc1ccc(C2(C(=O)Nc3ccc(Br)cc3)CCCC2)cc1 | 11.1% (not active) |
| O=C(Cn1ccnc1[N+](=O)[O-])NCc1ccccc1 [BENZNIDAZOLE] | 37.4% (not active) |
| CCn1ncc2c(NC3CCOCC3)c(CNC(=O)c3ccnn3C)c(C)nc21 | 0.8% (not active) |
| CC(C)(C)OC(=O)N1CCN(c2cc(-c3ccc(Oc4ccccc4)cc3)n[nH]2)CC1 | 65.7% (not active) |
| Cc1noc(C)c1C(=O)N1CCCC(c2[nH]c3c(C)cccc3c2-c2ccncc2)C1 (stereo not drawn) | 27.1% (not active) |
| COc1cccc(CC(=O)N2CCC(n3c(C)nc4ccc(F)cc43)CC2)c1 | 19.3% (not active) |
| CC(C)C(C(=O)Nc1ccc(S(=O)(=O)N(C)C)cc1)c1ccc(Cl)cc1 (stereo not drawn) | 41% (not active) |
| Clc1ccc(CCNc2cc(-c3ccccc3)nc3ncnn23)cc1 | 44.5% (not active) |

| SMILES | inhibition at 10 µM |
| --- | --- |
| COc1nc2ccc(Br)cc2cc1[C@@H](c1ccccc1)[C@@](O)(CCN(C)C)c1cccc2ccccc12 [BEDAQUILINE] | 56.3% (not active) |
| Nc1ccc(C(=O)Nc2ccc(-c3nc4ccccc4o3)cc2)cc1 | 6.1% (not active) |
| CN(C(=O)c1cc2c(-c3cncnc3)cccc2[nH]1)c1ccccc1 | 27.7% (not active) |
| CC1COC(Cn2cncn2)(c2ccc(Oc3ccc(Cl)cc3)cc2Cl)O1 (stereo not drawn) [DIFENOCONAZOLE] | 73.3% (not active) |
| Cc1ccc2[nH]c(C3CCCNC3)c(-c3ccncc3)c2c1 (stereo not drawn) | 9.5% (not active) |
| Cc1nn(C)cc1C(C)Nc1nncc(-c2ccc(C(F)(F)F)cc2)n1 (stereo not drawn) | 0% (not active) |
| CS(=O)(=O)N1CCC(CCn2nc(Cc3cccc4ccccc34)c3c(N)ncnc32)CC1 | 26.2% (not active) |
| O=C(Nc1nc(-c2ccccn2)cs1)C1CC1c1ccccc1F (stereo not drawn) | 46.3% (not active) |
| Nc1ncc(Br)cc1-c1nc2cc(Cl)cnc2[nH]1 | 15.3% (not active) |
| CC(C)(C(=O)Nc1ccc(F)cc1)n1cc(-c2ccccc2F)cn1 | 30.2% (not active) |
| NCCCC(N)(C(=O)O)C(F)F (stereo not drawn) [EFLORNITHINE] | 33.6% (not active) |
| Cc1cc(OCC(=O)NCc2ccccc2)c2cc(Br)ccc2n1 | 22.1% (not active) |
| c1cc(C2=NCCN2)cc(-c2cc(-c3ccc(C4=NCCN4)cc3)no2)c1 | 24.2% (not active) |
| Cn1ncc2c(N3CCOCC3)nc(NCCc3c[nH]c4ccccc34)nc21 [TDR79432] | 45.9% (not active) |
| Nc1nc(N)c2c3c(sc2n1)CN(Cc1ccccc1)CC3 | 2.1% (not active) |
| CCCCCCCCCCCCCCCCOP(=O)([O-])OCC[N+](C)(C)C [MILTEFOSINE] | 4% (not active) |
| COc1ccc(S(=O)(=O)Nc2ccc(CN3CCN(C(=O)c4cccc(C#N)c4)CC3)cc2)cc1 | 18.8% (not active) |
| Clc1ccc(Cl)c(CO[C@H]2CCCC[C@@H]2n2ccnc2)c1 | 35.1% (not active) |
| c1ccc(-c2nc(NC3CCCCC3)cc(C3CC3)n2)nc1 | 23.7% (not active) |
| Cc1nc2ccccn2c1C(=O)NCc1ccc(Cl)cc1 | 37.8% (not active) |
| OC[C@H]1O[C@@H](n2c3ccc(Cl)cc3c3c(-c4cc5ccccc5o4)ncnc32)C(O)[C@H]1O (stereo partly drawn) | 17.3% (not active) |
